Experiments:
[1] = tested on: MNU-induced mammary cancer; experiment: Short-term (90-day) assay against MNU-induced mammary cancer in rats (Expts. 2 and 3); format: in vivo, rat (female Sprague-Dawley); conditions: 90 days
Method: Retinoid diet mixtures were stored at 4° C. […] The animals were palpated for mammary tumors 2×/week. […] Also, five rats/group had complete necropsies performed.
(§1) The 2,5-dimethoxybenzyl (3b) and 4-methoxybenzyl (3e) ethers were tested in the same way in a 90-day study. […] The 2,5-dimethybenzyl (3c) and the 2,3-dimethoxybenzyl (3h) ethers, together with RTMBE for comparison, were likewise assayed according to the same methodology. Prior to the beginning of this study, specimens of the retinoid-diet mixtures were placed under the conditions that were employed during the storage and feeding of RTMBE, 3c, and 3h. The specimens were extracted with butanol, and the extracts were analyzed by HPLC. […] Testing of 3c and 3h was discontinued, but the RTMBE study was continued until the duration of the study was 180 days (Table 6). The results were similar to those of Experiment 1 (Table 3). The averages of the number of tumors per rat were reduced by 32-35%; in addition, the averages of the tumor weights per rat was 56-70% lower than the average tumor burden of the control group.
and was continued until the studies of 3b, 3c, 3e, and 3h were terminated
90 days after administration of MNU. The RTMBE experiment was continued
until 180 days after MNU administration (Table VI).
kilogram of Teklad diet.

[2] = target: T1, cellular retinol-binding protein (CRBP) (Rattus norvegicus, UniProt P02696); experiment: Binding to cellular retinol-binding protein (CRBP): inhibition of [3H]retinol binding, sucrose density-gradient sedimentation
T1 construct: portions of rat testes cytosol (1 mg protein) were incubated; from tissue; host or cells: rat testes cytosol
T1 sequence (P02696 1-135): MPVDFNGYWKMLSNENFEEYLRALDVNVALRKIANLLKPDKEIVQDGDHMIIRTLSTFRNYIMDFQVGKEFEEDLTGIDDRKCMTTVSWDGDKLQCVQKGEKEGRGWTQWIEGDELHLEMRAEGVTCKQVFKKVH
Method: Binding affinities of the retinyl ethers for CRBP were determined by sucrose, density-gradient, sedimentation analysis as described before (Sani et al., 1980). Briefly, portions of rat testes cytosol (1 mg protein) were incubated with [^3 H]retinol (50 pmol) in the presence or absence of a 150-fold molar excess of unlabeled retinol or the test retinoids. The preparations after dialysis were analyzed by 5-20% sucrose density gradient sedimentation. For measuring the competitive binding of the unlabeled retinoids, inhibition of [^3 H]retinol binding to CRBP by unlabeled retinol is regarded as 100%. The mean and standard deviation calculated from the relative inhibitions obtained from multiple determinations were used as the relative binding affinities of the various retinyl ethers.
The group of retinyl benzyl ethers has now been evaluated for binding to CRBP. Binding to CRBP, as defined for Table I, at approximately 60% or higher was rated as strong; at 40-60%, as moderate; at 20-40%, as low.
^a Per cent inhibition of binding of tritiated retinol to CRBP by a
150-fold molar excess of the unlabelled test retinoid (Sani et al., 1980,

[3] = tested on: serum retinol-binding protein (RBP); experiment: Binding to serum retinol-binding protein (RBP): inhibition of [3H]retinol binding; conditions: % of that of retinol
[4] = Analysis of feed samples for stability of retinyl ethers; format: physicochemical
Method: as §1
^a The values in each column are % recoveries of the retinyl ether from
mixtures of the ether with feed samples and are based on the actual
amounts of the ether that were added.
^b The samples that were analyzed were mixtures of vehicle, retinoid,
and feed (prepared as described by Shealy et al., 1997).
^c Food cups were placed in animal cages within the room that housed
the rats; therefore, temperature (22° C.) and lighting were
identical to those in use during the in vivo tests.

COc1cc(COC/C=C(C)/C=C/C=C(C)/C=C/C2=C(C)CCCC2(C)C)cc(OC)c1OC [Compound 2, Retinyl 3,4,5-Trimethoxybenzyl Ether]
reduction of the number of tumors per rat ([1]; at 1 mmol/kg): 64%
Tumors, % of Control Gp. ([1]; Expt. 3, 0.5 mmol/kg diet): 78%
Tumors, Avg. No. per Rat ([1]; Expt. 3, 0.5 mmol/kg diet): 1.5
Tumors, % of Control Gp. ([1]; Expt. 3, 1 mmol/kg diet): 36%
Tumors, Avg. No. per Rat ([1]; Expt. 3, 1 mmol/kg diet): 0.7
Tumors, % of Control Gp. ([1]; Expt. 3, 2 mmol/kg diet): 36%
Tumors, Avg. No. per Rat ([1]; Expt. 3, 2 mmol/kg diet): 0.7
Binding to CRBP, rating ([2]; 150-fold molar excess): strong or moderate binding
binding to CRBP, in words ([2]; 150-fold molar excess): bind to CRBP
Percent Inhibition of [3H] Retinol Binding (CRBP Assay) ([2]; 150-fold molar excess of unlabelled test retinoid, rat testes cytosol): 66 ± 12%
inhibition of [3H] retinol-binding (RBP), relative to that of retinol [3]: 70%
% recovery of retinyl ether from feed ([4]; After 1 week of 4° C., 10080 min): 101%
% recovery of retinyl ether from feed ([4]; After 1 day in food cup (22° C.)): 97%
% recovery of retinyl ether from feed ([4]; After 2 days in food cup (22° C.)): 104%
% recovery of retinyl ether from feed ([4]; After 3 days in food cup (22° C.)): 97.5%
% recovery of retinyl ether from feed ([4]; Immediately After Mixing): 99.8%
% recovery of retinyl ether ([4]; Vehicle + Retinoid (only)): 97%
stability in diet mixtures ([4]; conditions of storage and feeding in animal rooms): essentially unchanged

— patent US6281250A, “Retinyl ethers, derivatives and analogues and inhibition of breast carcinogenesis” (Southern Research Institute, priority 1999, dated 2001)
